Results on two molecules are retold here after patent publication US12410419B2, “Use of enzyme that cleaves both alpha- and beta- 1,4-glycosidic bonds” (Korea University Research and Business Foundation, priority 2019, dated 2025).

Data set [1] has as its system Alf1_Wf bacterial fucosidase, Wenyingzhuangia fucanilytica. The settings on record: Table 1; Dong 2017; cited from earlier work.
Data set [2] has as its system TM0306 bacterial fucosidase, T. maritima. The note with it: Table 1, Sulzenbacher 2004, cited from earlier work.
Data set [3] deals with AlfC bacterial fucosidase, L. casei. Further details: Vmax: unit not given here. The settings on record: Table 1; Rodriguez-Diaz 2011; cited from earlier work.
The test system of data set [4] is AlfA bacterial fucosidase, Lactobacillus casei. The settings on record: Table 1; Rodriguez-Diaz 2011; cited from earlier work.
Data set [5] deals with aLfuk1 bacterial fucosidase. The settings on record: Table 1; Benesova 2013; cited from earlier work.
Data set [6] concerns the target Vibrio sp. strain EJY3 α-L-fucosidase VeFUC (VEJY3_11310, UniProt H2IHW9.1), wild type, SEQ ID NO: 1 (Vibrio sp. EJY3, UniProt A0ACD6BAZ0). As to the kind of experiment: Kinetic parameters of VeFUC for pNP-α-L-Fuc. In kind it is biochemical. The settings on record: Table 1, Present invention. The procedure: Genomic DNA of Vibrio sp. strain EJY3 for cloning a gene encoding VeFUC was prepared as follows: Vibrio sp. strain EJY3 was cultured in a minimum medium consisting of 23 g/L Instant Ocean Sea Salt (Aquarium Systems, Mentor, OH, USA), 50 mM Tris-HCl (pH 7.4), 2 g/L glucose, 1 g/L yeast extract and 0.5 g/L ammonium chloride at 303 K and 200 rpm for 18 hours. The genomic DNA was extracted from a culture using the DNeasy Blood & Tissue Kit (Qiagen, Valencia, CA, USA) according to the manufacturer's protocol. A target gene, VEJY3_11310 (UniProt accession no. H2IHW9.1) was amplified by PCR using the following primers. The underlined parts are BamHI and XhoI restriction enzyme sites; […]
(§1) Recombinant E. coli loaded with the pET21a-VeFUC plasmid was grown at 310 K and 200 rpm until an absorbance measured at 600 nm in a culture Luria-Bertani (LB) broth containing 100 mg L^−1 ampicillin reached 0.6. […] The concentrated enzyme solution was analyzed by bicinchoninic acid (BCA) protein analysis (Thermo Fisher Scientific, Waltham, MA) and 12% (w/v) SDS-PAGE gel electrophoresis to determine the concentration, size and purity of the target protein.
(§2) The reaction was terminated by adding 500 μl of 1 M sodium carbonate thereto, and the absorbance of the reaction mixture was quantified by spectrophotometry at 405 nm. […]

The subject of data set [7] is TfFuc1 bacterial fucosidase, Tannerella forsythia. The settings on record: Table 1; Megson 2015; cited from earlier work.
For data set [8], the system named is XCC2888 bacterial fucosidase, Xanthomonas campestris. The note with it: Table 1, Dupoiron 2015, cited from earlier work.
Data set [9] concerns AlfB bacterial fucosidase, L. casei. Further details: Vmax: unit not given here. The settings on record: Table 1; Rodriguez-Diaz 2011; cited from earlier work.
Data set [10] deals with BT_2970 bacterial fucosidase, B. subtilis thetaiotaomicron. The note with it: Table 1; Sakurama 2012; cited from earlier work.
Data set [11] deals with BT_2970 bacterial fucosidase. The note with it: Table 1; Sakurama 2012; cited from earlier work.
Substrate in data set [12]: C[C@@H]1O[C@@H](Oc2ccc([N+](=O)[O-])cc2)[C@@H](O)[C@H](O)[C@@H]1O
As to the kind of experiment: Kinetic parameters of VeFUC for pNP-α-L-Fuc. The class given is biochemical, Vibrio sp. strain EJY3. The note with it: other: text, 313 K, 10 mM sodium acetate buffer (pH 6.0), Lineweaver-Burk plot, 40.0 °C. As to the method: Genomic DNA of Vibrio sp. strain EJY3 for cloning a gene encoding VeFUC was prepared as follows: Vibrio sp. strain EJY3 was cultured in a minimum medium consisting of 23 g/L Instant Ocean Sea Salt (Aquarium Systems, Mentor, OH, USA), 50 mM Tris-HCl (pH 7.4), 2 g/L glucose, 1 g/L yeast extract and 0.5 g/L ammonium chloride at 303 K and 200 rpm for 18 hours. The genomic DNA was extracted from a culture using the DNeasy Blood & Tissue Kit (Qiagen, Valencia, CA, USA) according to the manufacturer's protocol. A target gene, VEJY3_11310 (UniProt accession no. H2IHW9.1) was amplified by PCR using the following primers. The underlined parts are BamHI and XhoI restriction enzyme sites;
Recombinant proteins were purified using a HisTrap column (GE Healthcare, Piscataway, NJ, USA) by adding sequences encoding 6 histidines to the reverse primer. A PCR product was treated with BamHI and XhoI restriction enzymes and subsequently ligated to a pET-21a plasmid (Novagen, Darmstadt, Germany) to construct a PET21a-VeFUC plasmid.
as §1, §2
In order to measure the kinetic parameters of VeFUC for pNP-α-L-Fuc, enzymatic reactions were performed at different concentrations of pNP-α-L-Fuc in a range of 0.109 to 0.875 mM under the same conditions described above. Vmax, Km and kcat, which are enzyme kinetic parameters of VeFUC were measured from a Lineweaver-Burk plot. […]

A word on the Km: it is the substrate concentration at which the rate is half of its maximum. Turning to `C[C@@H]1O[C@@H](Oc2ccc([N+](=O)[O-])cc2)[C@@H](O)[C@H](O)[C@@H]1O` [pNP-α-L-Fuc, p-nitrophenyl-α-L-fucopyranoside], the Kcat is 5.44 s⁻¹ in [1]; 5.4 ± 0.2 in data set [2] (in 1/s); 4.81 ± 1.8 in data set [6] (in 1/s); 6.1 ± 2.0 in data set [8] (in 1/s); 1.3 s⁻¹ in data set [11]. The Km is 3300 ± 420 µM in [1]; 34 ± 2 µM in data set [2]; 5300 µM in data set [3]; 270 µM in [4]; 440 ± 20 µM in [5]; 670 ± 200 µM in [7]. For the same molecule, the Km was 700 ± 100 µM in data set [8], 2900 µM in [9] and 1500 µM in data set [10]. In addition, the Vmax was 4.75 in data set [1]; 22.2 in data set [3]; 24.8 ± 0.9 in data set [6]; 20.4 in data set [7]; 6 in data set [9].

B1: Vibrio sp. strain EJY3 α-L-fucosidase VeFUC (VEJY3_11310, UniProt H2IHW9.1), wild type, SEQ ID NO: 1 (Vibrio sp. EJY3) (protein)
chain: MTKPTAGELTGTSSQATSQLDNRNAFTGVSKQGLNRWKKNTFGMFIHWGLYCHRDLAGYYQGQYYDIISEWLPHFARIPMRDYKEYASDFNPSEFDADQVTALAKTAGMNYMVVTAKHHDGFAMYHSPSHPFNITDATPFKRDPVAELSQSCRHKDLDFGLYYSHVIDWENENAVSKAPNDWDFNPDQANYQEYWNNKCLPQVNELLEQYGDLCSLWFDMGGFDVQEEADHVRRIGELMALIRKKQPDAVVNSRVTAPECEYQLDWDIKTGHDNYMEPLYIKPYYWEGIATSNDNWGYSRNDNNTKSSKDLINQLCSVVSRGGNFLLNITLDHNGRIPQSLVRLLSEIGQWMQVNQEAVIDTEATPLQTGFNWGVVTHRPATNKLYLHVQRQPEQNVICLHSLNNRIKQVRLLDNQIKGHVSYLQKTHTDTGITASTLNLQLGHNYDRMPLVIELEYDGELDINPIVHQDRLAKVRLDTLNIAHFDPEKLTYRWTFQIQSPGRFALDLVSLETMHHKDPQWVHNGKTGRISCGGQSWEFELNLDKTDTNDAQVPWKNIHSRLGELHFPQAGEYTLEFSELPLAIDQSEKYGQDYINLEYLQLGPRLA
One may read the kcat as the number of substrate molecules converted per active site and unit of time at saturation. In the case of B1, in data set [12], the Michaelis constant (Km) turned out to be 6340 ± 480 µM, the Vmax is listed as 24.8±0.9 U mg^−1 protein and the kcat stood at 4.81 ± 1.8 s⁻¹.
